Values joined by “and” are separate entries in the source; they are usually repeats but may differ in a detail not shown here. Equal entries are not always repeated.
Tests used:
Assay type in all cases: cell-based
[1] = biological target: T1, GPR139 (Homo sapiens, UniProt Q6DWJ6); experiment: Ca2+ mobilization assay, agonist mode, stable GPR139-CHOk1 cell line; conditions: for EC50 / Emax: Supplementary Table 2, mean ± SEM; for EC50: read-out: pEC50 Ca2+ (converted); for Emax: normalized to Lundbeck Cmp 1a, read-out: Emax (%) Ca2+
T1 sequence (Q6DWJ6 1-353): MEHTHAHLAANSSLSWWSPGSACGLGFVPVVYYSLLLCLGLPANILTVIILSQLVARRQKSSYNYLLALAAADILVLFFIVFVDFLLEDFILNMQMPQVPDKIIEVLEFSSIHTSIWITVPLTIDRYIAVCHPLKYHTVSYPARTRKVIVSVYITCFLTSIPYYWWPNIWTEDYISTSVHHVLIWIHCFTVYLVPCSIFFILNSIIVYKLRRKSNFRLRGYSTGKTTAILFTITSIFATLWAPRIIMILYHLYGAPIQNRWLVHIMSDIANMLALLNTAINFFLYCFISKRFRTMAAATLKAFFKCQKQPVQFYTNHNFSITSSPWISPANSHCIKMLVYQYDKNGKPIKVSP
How it was run: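 Agonist activity of compounds is assessed in stably transfected CHO-K1 cells using the calcium dye Fluo-4 at 37 °C in HEPES-buffered HBSS (pH 7.4). Efficacy is expressed relative to the reference agonist Lundbeck Cmp 1a, set as 100%.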

[2] = biological target: T1, GPR139; experiment: Ca2+ mobilization assay, antagonist mode (EC80 800 nM Lundbeck Cmp 1a after 20 min preincubation), GPR139-CHOk1
How it was run: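 Antagonist mode: 800 nM (EC80) reference agonist Lundbeck Cmp 1a added following 20 min pre-incubation with 10 µM compound. GPR139-CHOk1 cells, Fluo-4 dye, probenecid-containing HEPES buffer pH 7.4; intracellular Ca2+ measured at 37 °C (ex 485, em 525 nm).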

[3] = biological target: T2, human muscarinic acetylcholine M1 receptor (M1R) (Homo sapiens, UniProt P11229); experiment: Ca2+ mobilization counter-screen in M1R-CHOk1 cells
T2 sequence (P11229 1-460): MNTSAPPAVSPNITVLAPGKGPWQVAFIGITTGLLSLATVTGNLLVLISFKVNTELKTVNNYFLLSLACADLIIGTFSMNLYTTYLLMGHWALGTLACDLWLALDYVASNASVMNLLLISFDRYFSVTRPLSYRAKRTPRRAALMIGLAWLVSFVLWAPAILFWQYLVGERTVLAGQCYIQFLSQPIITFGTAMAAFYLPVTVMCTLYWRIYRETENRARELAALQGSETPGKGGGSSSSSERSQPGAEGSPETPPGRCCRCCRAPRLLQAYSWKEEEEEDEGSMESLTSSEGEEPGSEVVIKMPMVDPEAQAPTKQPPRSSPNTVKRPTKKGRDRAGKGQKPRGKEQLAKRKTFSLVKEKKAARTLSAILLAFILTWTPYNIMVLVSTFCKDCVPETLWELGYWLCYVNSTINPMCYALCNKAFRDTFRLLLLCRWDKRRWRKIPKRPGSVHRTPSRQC
How it was run: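 Cells expressing M1R were grown 20–24 h, washed, then incubated 1 h at 37 °C with 2 µM Fluo-4 AM. After a wash and 10 min in probenecid buffer, test compounds were injected following a baseline read, and intracellular Ca2+ rise was monitored at 37 °C.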

[4] = Agonist mode, individual replicates (Supplementary Figure 4)
[5] = log [Compound] M = -4.5, individual replicate columns
[6] = log [Compound] M = -5.0, individual replicate columns
[7] = log [Compound] M = -5.5, individual replicate columns
[8] = log [Compound] M = -6.0, individual replicate columns
[9] = log [Compound] M = -6.5, individual replicate columns
[10] = log [Compound] M = -7.0, individual replicate columns
[11] = log [Compound] M = -7.5, individual replicate columns
[12] = log [Compound] M = -8.0, individual replicate columns
[13] = log [Compound] M = -8.5, individual replicate columns
[14] = log [Compound] M = -9.0, individual replicate columns
[15] = individual replicates (Supplementary Figure 4)
[16] = individual replicates (Supplementary Figure 5)
[17] = 0.1 µM, individual replicates (Supplementary Figure 3)
[18] = 1 µM, individual replicates (Supplementary Figure 3)
[19] = 10 µM, individual replicates (Supplementary Figure 3)
[20] = Agonist mode, individual replicates (Supplementary Figure 1)
[21] = individual replicates (Supplementary Figure 1)
[22] = individual replicates (Supplementary Figure 2)

Compound	Ca2+ signal (% of Cmp 1a) [1, 4]	EC50 [1] [µM]	Emax [1] [%]	Ca2+ signal (% of Cmp 1a) [1, 5]	Ca2+ signal (% of Cmp 1a) [1, 6]	Ca2+ signal (% of Cmp 1a) [1, 7]	Ca2+ signal (% of Cmp 1a) [1, 8]	Ca2+ signal (% of Cmp 1a) [1, 9]	Ca2+ signal (% of Cmp 1a) [1, 10]	Ca2+ signal (% of Cmp 1a) [1, 11]	Ca2+ signal (% of Cmp 1a) [1, 12]	Ca2+ signal (% of Cmp 1a) [1, 13]	Ca2+ signal (% of Cmp 1a) [1, 14]	Ca2+ signal (% of Cmp 1a) [2, 15]	Ca2+ signal (% of Carbachol) [3, 16]	Ca2+ signal (% of Cmp 1a) [1, 17]	Ca2+ signal (% of Cmp 1a) [1, 18]	Ca2+ signal (% of Cmp 1a) [1, 19]	Ca2+ signal (% of Cmp 1a) [1, 20]	Ca2+ signal (% of Cmp 1a) [2, 21]	other results
Cc1ccnc(-c2nc(CC(=O)NC(C)c3ccccc3)no2)c1 (stereo not drawn) [Compound 1.17, CC(C1=CC=CC=C1)NC(CC2=NOC(C3=NC=CC(C)=C3)=N2)=O]	56 % of Cmp 1a and 85 % of Cmp 1a and 81 % of Cmp 1a	0.794	98 ± 3	97 % of Cmp 1a (2×) and 99 % of Cmp 1a and 98 % of Cmp 1a and 90 % of Cmp 1a	111 % of Cmp 1a and 99 % of Cmp 1a and 92 % of Cmp 1a and 73 % of Cmp 1a and 91 % of Cmp 1a	133 % of Cmp 1a and 107 % of Cmp 1a and 62 % of Cmp 1a and 54 % of Cmp 1a and 75 % of Cmp 1a	82 % of Cmp 1a and 74 % of Cmp 1a and 57 % of Cmp 1a and 42 % of Cmp 1a and 56 % of Cmp 1a	39 % of Cmp 1a and 41 % of Cmp 1a and 22 % of Cmp 1a and 13 % of Cmp 1a and 21 % of Cmp 1a	27 % of Cmp 1a and 24 % of Cmp 1a and 4.3 % of Cmp 1a and 2.59 % of Cmp 1a and 7 % of Cmp 1a	12 % of Cmp 1a (2×) and -2.74 % of Cmp 1a and 7 % of Cmp 1a and 4.7 % of Cmp 1a	7 % of Cmp 1a and 3 % of Cmp 1a and -1 % of Cmp 1a and 10 % of Cmp 1a and 2.65 % of Cmp 1a	7 % of Cmp 1a and 1.19 % of Cmp 1a and 6 % of Cmp 1a (2×) and 3 % of Cmp 1a	11 % of Cmp 1a and 1.67 % of Cmp 1a and 3 % of Cmp 1a and 4.53 % of Cmp 1a and 4.33 % of Cmp 1a	4 % of Cmp 1a and 35 % of Cmp 1a and 2.33 % of Cmp 1a	-5.46 % of Carbachol and 6 % of Carbachol and 7.55 % of Carbachol						fold decrease in potency relative to a similar phenyl substituted compound (1.3) ([1]; Ca2+ mobilization EC50): 4- to 16 fold
CC(NC(=O)C1CCN(c2cccc(Cl)c2)C1=O)c1ccsc1 (stereo not drawn) [Compound 12, CC(NC(=O)C1CCN(C1=O)C=2C=CC=C(Cl)C2)C=3C=CSC3]																-2.8 % of Cmp 1a and 0.3 % of Cmp 1a	-0.458 % of Cmp 1a and 0.235 % of Cmp 1a	12.7 % of Cmp 1a and 12.3 % of Cmp 1a	45 % of Cmp 1a and 20 % of Cmp 1a and 39 % of Cmp 1a	56.3731 % of Cmp 1a and 71.421 % of Cmp 1a and 56.1991 % of Cmp 1a	Ca2+ signal (% of Carbachol) [3, 22]: -6.54 % of Carbachol and -0.0404 % of Carbachol
Cc1ccc(-c2nc(CC(=O)NC(C)c3ccccc3)no2)nc1C (stereo not drawn) [Compound 1.31, CC(C1=CC=CC=C1)NC(CC2=NOC(C3=NC(C)=C(C)C=C3)=N2)=O]	66 % of Cmp 1a and 63 % of Cmp 1a and 64 % of Cmp 1a	3.16	86 ± 5	86 % of Cmp 1a and 82 % of Cmp 1a and 66 % of Cmp 1a and 84 % of Cmp 1a and 90 % of Cmp 1a	64 % of Cmp 1a and 55 % of Cmp 1a and 44 % of Cmp 1a and 70 % of Cmp 1a and 87 % of Cmp 1a	36 % of Cmp 1a and 30 % of Cmp 1a and 18 % of Cmp 1a and 73 % of Cmp 1a and 76 % of Cmp 1a	7 % of Cmp 1a and 7.42 % of Cmp 1a and 11 % of Cmp 1a and 39 % of Cmp 1a and 38 % of Cmp 1a	11 % of Cmp 1a and -0.0559 % of Cmp 1a and -2.48 % of Cmp 1a and 12 % of Cmp 1a and 13 % of Cmp 1a	-0.363 % of Cmp 1a and -3.44 % of Cmp 1a and 5.45 % of Cmp 1a and 7 % of Cmp 1a and 2.52 % of Cmp 1a	-1.4 % of Cmp 1a and 1.28 % of Cmp 1a and 5 % of Cmp 1a and 4.53 % of Cmp 1a and 3 % of Cmp 1a	2 % of Cmp 1a and 3.59 % of Cmp 1a and 6 % of Cmp 1a and 2.52 % of Cmp 1a and -0.475 % of Cmp 1a	1.45 % of Cmp 1a and 1.69 % of Cmp 1a and 3 % of Cmp 1a and 2.45 % of Cmp 1a and -0.45 % of Cmp 1a	1.77 % of Cmp 1a and -0.256 % of Cmp 1a and 3.41 % of Cmp 1a and 8 % of Cmp 1a and 5 % of Cmp 1a	38 % of Cmp 1a and 34 % of Cmp 1a and 35 % of Cmp 1a	-8 % of Carbachol and 0.74 % of Carbachol and -0.0562 % of Carbachol						
COCC(NC(=O)NC(C)c1ccc(F)cc1F)c1ccccc1 (stereo not drawn) [Compound 6, COCC(NC(=O)NC(C)C=1C=CC(F)=CC1F)C=2C=CC=CC2]																-5.9 % of Cmp 1a and -10.9 % of Cmp 1a	3.9 % of Cmp 1a and 9.9 % of Cmp 1a	34.7 % of Cmp 1a and 32.7 % of Cmp 1a	37 % of Cmp 1a and 42 % of Cmp 1a and 46 % of Cmp 1a	39.4931 % of Cmp 1a and 54.2036 % of Cmp 1a and 45.3276 % of Cmp 1a	activation of GPR139 at three concentrations ([1]; 0.1, 1 and 10 µM, activity too low to reliably determine EC50): concentration-dependent activation of GPR139; Ca2+ signal (% of Cmp 1a) ([1]; primary screen, 10 µM compound, agonist mode, three columns = independent experiments): 37 % of Cmp 1a and 42 % of Cmp 1a and 46 % of Cmp 1a; Ca2+ signal (% of Carbachol) [3, 22]: -19 % of Carbachol and -0.753 % of Carbachol
Cc1cc(-c2nc(CC(=O)NC(C)c3ccccc3)no2)no1 (stereo not drawn) [Compound 1.23, CC(C1=CC=CC=C1)NC(CC2=NOC(C3=NOC(C)=C3)=N2)=O]	72 % of Cmp 1a and 57 % of Cmp 1a and 85 % of Cmp 1a	1.58	95 ± 3	95 % of Cmp 1a and 102 % of Cmp 1a and 98 % of Cmp 1a and 93 % of Cmp 1a	96 % of Cmp 1a and 81 % of Cmp 1a and 85 % of Cmp 1a and 77 % of Cmp 1a	80 % of Cmp 1a and 55 % of Cmp 1a and 48 % of Cmp 1a and 70 % of Cmp 1a	56 % of Cmp 1a and 30 % of Cmp 1a and 19 % of Cmp 1a and 38 % of Cmp 1a	38 % of Cmp 1a and 9 % of Cmp 1a and -1 % of Cmp 1a and 11 % of Cmp 1a	18 % of Cmp 1a and 5.7 % of Cmp 1a and 1.07 % of Cmp 1a and 6 % of Cmp 1a	12 % of Cmp 1a (2×) and 15 % of Cmp 1a and 0.388 % of Cmp 1a	-3 % of Cmp 1a and 11 % of Cmp 1a and 10 % of Cmp 1a and 0.199 % of Cmp 1a	-4.71 % of Cmp 1a and 7 % of Cmp 1a and 14 % of Cmp 1a and -1.47 % of Cmp 1a	4 % of Cmp 1a and 6.41 % of Cmp 1a and 7 % of Cmp 1a and -2.26 % of Cmp 1a	15 % of Cmp 1a and 20 % of Cmp 1a and 10 % of Cmp 1a	-3 % of Carbachol and 4.36 % of Carbachol and 7 % of Carbachol						
